# From patent US9695155B2, “Herbicidal substituted pyrimidinyloxy benzene compounds” (E. I. DU PONT DE NEMOURS AND COMPANY, priority 2013, dated 2017)
# Columns and labels:
# barnyardgrass [1] = experiment: Test A postemergence; type: in vivo, Echinochloa crus-galli
# In short: (§1)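 Visual injury scored 0–100 (100 = complete control) against untreated controls about 10 days after treatment in a greenhouse. Test chemicals, formulated with surfactant in non-phytotoxic solvent, were sprayed on soil preemergence or on 2-10 cm, one- to two-leaf plants postemergence.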
# barnyardgrass [2] = experiment: Test A preemergence; type: in vivo, Echinochloa crus-galli
# In short: as §1
# large (Lg) crabgrass [3] = experiment: Test C postemergence; type: in vivo, Digitaria sanguinalis; conditions: for Plant response rating (0 to 100), Crabgrass, Large: postemergence; for Plant response rating, Crabgrass, Large: Postemergence, scale 0 to 100 (0 no effect, 100 complete control)
# Text: (§2) Seeds of plant species selected from blackgrass (Alopecurus myosuroides), Italian ryegrass (Lolium multiflorum), wheat, winter (winter wheat, Triticum aestivum), galium (catchweed bedstraw, Galium aparine), corn (Zea mays), large (Lg) crabgrass (Digitaria sanguinalis), giant foxtail (Setaria faberii), johnsongrass (Sorghum halepense), lambsquarters (Chenopodium album), morningglory (Ipomoea coccinea), yellow nutsedge (Cyperus esculentus), pigweed (Amaranthus retroflexus), ragweed (common ragweed, Ambrosia elatior), soybean (Glycine max), barnyardgrass (Echinochloa crus-galli), oilseed rape (Brassica napus), waterhemp (common waterhemp, Amaranthus rudis), kochia (Kochia scoparia), wild oat (Avena fatua), surinam grass (Brachiaria decumbens), foxtail, green (green foxtail, Setaria viridis), goosegrass (Eleusine indica), bromegrass, downy (downy bromegrass, Bromus tectorum), nightshade (eastern black nightshade, Solanum ptycanthum), cocklebur (common cocklebur, Xanthium strumarium), cupgrass, woolly (woolly cupgrass, Eriochloa villosa), bermudagrass (Cynodon dactylon), sunflower, (common oilseed sunflower, Helianthus annuus), Russian thistle (Salsola kali), and velvetleaf (Abutilon theophrasti) were planted into a blend of loam soil and sand and treated preemergence with test chemicals formulated in a non-phytotoxic solvent mixture which included a surfactant.
# (§3) At the same time, plants selected from these crop and weed species and also barley, winter (winter barley, Hordeum vulgare), windgrass (Apera spica-venti), chickweed (common chickweed, Stellaria media), deadnettle (henbit deadnettle, Lamium amplexicaule), and canarygrass (littleseed canarygrass, Phalaris minor) were planted in pots containing Redi-Earth® planting medium (Scotts Company, 14111 Scottslawn Road, Marysville, Ohio 43041) comprising spaghnum peat moss, vermiculite, wetting agent and starter nutrients and treated with postemergence applications of test chemicals formulated in the same manner. Plants ranged in height from 2 to 18 cm (1- to 4-leaf stage) for postemergence treatments. Treated plants and controls were maintained in a greenhouse for 13 to 15 days, after which time all species were compared to controls and visually evaluated. Plant response ratings, summarized in Table C, are based on a scale of 0 to 100 where 0 is no effect and 100 is complete control. A dash (-) response means no test result.
# soybean = experiment: Test C postemergence; type: in vivo, Glycine max; conditions: for Plant response rating (0 to 100), Soybean: postemergence; for Plant response rating, Soybean: Postemergence, scale 0 to 100 (0 no effect, 100 complete control)
# Text: as §2, §3
# galium = experiment: Test C preemergence; type: in vivo, Galium aparine; conditions: for Galium plant response rating: preemergence, scale 0 (no effect) to 100 (complete control)
# In short: (§4)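 Injury was assessed visually against controls 13 to 15 days after application, with 0 meaning no effect and 100 full control; missing entries are shown as a dash. Preemergence sprays hit seeded loam–sand soil, postemergence sprays hit 1- to 4-leaf plants.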
# johnsongrass = experiment: Test C preemergence; type: in vivo, Sorghum halepense; conditions: for Johnsongrass plant response rating: preemergence, scale 0 (no effect) to 100 (complete control)
# In short: as §4
# sedge, umbrella = experiment: Test B flooded paddy test; type: in vivo, Cyperus difformis; conditions: Flood, 250 g ai/ha; 0 to 100 scale where 0 is no effect and 100 is complete control
# In short: (§5)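 Scores from 0 (no effect) to 100 (complete control) are visual comparisons with controls, taken 13 to 15 days after compound was applied into floodwater 3 cm deep around 2-leaf plants.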
# velvetleaf [4] = experiment: Test C postemergence; type: in vivo, Abutilon theophrasti; conditions: for Plant response rating (0 to 100), Velvetleaf: postemergence
# In short: as §4
# corn = experiment: Test A postemergence; type: in vivo, Zea mays
# In short: as §1
# rice = experiment: Test B flooded paddy test; type: in vivo, Oryza sativa; conditions: Flood, 250 g ai/ha; 0 to 100 scale where 0 is no effect and 100 is complete control
# In short: as §5
# velvetleaf [5] = experiment: Test C preemergence; type: in vivo, Abutilon theophrasti; conditions: for Velvetleaf plant response rating: preemergence, scale 0 (no effect) to 100 (complete control)
# In short: as §4
# large (Lg) crabgrass [6] = experiment: Test C preemergence; type: in vivo, Digitaria sanguinalis; conditions: for Crabgrass, Large plant response rating: preemergence, scale 0 (no effect) to 100 (complete control)
# In short: as §4
# lambsquarters = experiment: Test C postemergence; type: in vivo, Chenopodium album; conditions: for Plant response rating (0 to 100), Lambsquarters: postemergence; for Plant response rating, Lambsquarters: Postemergence, scale 0 to 100 (0 no effect, 100 complete control)
# Text: as §2, §3
# [7] = 125 g ai/ha, 0 to 100 scale where 0 is no effect and 100 is complete control
# [8] = 500 g ai/ha, 0 to 100 scale, 0 no effect, 100 complete control
# [9] = Preemergence, 31 g ai/ha, scale 0 to 100, 0 no effect, 100 complete control
compound,measurement,setting,value
FC(F)(F)c1cnn(-c2ccccc2Oc2ncc(Cl)cn2)c1 [Compound 16],"Plant response rating, Barnyardgrass",barnyardgrass [1]; [7],60
same,"Plant response rating, Barnyardgrass",barnyardgrass [1]; [8],100
same,Barnyardgrass plant response rating,barnyardgrass [2]; [7],100
same,Barnyardgrass plant response rating,"barnyardgrass [2]; 500 g ai/ha, 0 to 100 scale, 0 no effect, 100 complete control, approx. 10 days",100
same,"Plant response rating (0 to 100), Crabgrass, Large",large (Lg) crabgrass [3]; 125 g ai/ha,30
same,"Plant response rating (0 to 100), Crabgrass, Large",large (Lg) crabgrass [3]; 250 g ai/ha,85
same,"Plant response rating, Crabgrass, Large","large (Lg) crabgrass [3]; 31 g ai/ha, 13 to 15 days",10
same,"Plant response rating, Crabgrass, Large",large (Lg) crabgrass [3]; 62 g ai/ha,20
same,"Plant response rating (0 to 100), Soybean",soybean; 125 g ai/ha,90
same,"Plant response rating (0 to 100), Soybean",soybean; 250 g ai/ha,90
same,"Plant response rating, Soybean","soybean; 31 g ai/ha, 13 to 15 days",75
same,"Plant response rating, Soybean",soybean; 62 g ai/ha,85
same,Galium plant response rating,galium; 62 g ai/ha,100
same,Galium plant response rating,galium; 125 g ai/ha,100
same,Galium plant response rating,galium; 250 g ai/ha,100
same,"Plant response rating, Galium",galium; [9],95
same,Johnsongrass plant response rating,johnsongrass; 62 g ai/ha,85
same,Johnsongrass plant response rating,johnsongrass; 125 g ai/ha,100
same,Johnsongrass plant response rating,johnsongrass; 250 g ai/ha,100
same,"Plant response rating, Johnsongrass",johnsongrass; [9],0
same,"Plant response rating, Sedge, Umbrella","sedge, umbrella",90
same,"Plant response rating (0 to 100), Velvetleaf",velvetleaf [4]; 125 g ai/ha,75
same,"Plant response rating (0 to 100), Velvetleaf",velvetleaf [4]; 250 g ai/ha,75
same,"Plant response rating, Velvetleaf","velvetleaf [4]; Postemergence, 31 g ai/ha, scale 0 to 100 (0 no effect, 100 complete control), 13 to 15 days",60
same,"Plant response rating, Corn",corn; [7],70
same,"Plant response rating, Corn",corn; [8],80
same,"Plant response rating, Rice",rice,40
same,Velvetleaf plant response rating,velvetleaf [5]; 62 g ai/ha,100
same,Velvetleaf plant response rating,velvetleaf [5]; 125 g ai/ha,100
same,Velvetleaf plant response rating,velvetleaf [5]; 250 g ai/ha,100
same,"Plant response rating, Velvetleaf",velvetleaf [5]; [9],98
same,"Crabgrass, Large plant response rating",large (Lg) crabgrass [6]; 62 g ai/ha,100
same,"Crabgrass, Large plant response rating",large (Lg) crabgrass [6]; 125 g ai/ha,100
same,"Crabgrass, Large plant response rating",large (Lg) crabgrass [6]; 250 g ai/ha,100
same,"Plant response rating, Crabgrass, Large",large (Lg) crabgrass [6]; [9],98
same,"Plant response rating (0 to 100), Lambsquarters",lambsquarters; 125 g ai/ha,100
same,"Plant response rating (0 to 100), Lambsquarters",lambsquarters; 250 g ai/ha,100
same,"Plant response rating, Lambsquarters","lambsquarters; 31 g ai/ha, 13 to 15 days",75
same,"Plant response rating, Lambsquarters",lambsquarters; 62 g ai/ha,100
